What all share (experiment): NCI tumour cell line growth inhibition, 48 h
Assay [1] has as its system CCRF-CEM.
Assay [2] concerns OVCAR-8.
Assay [3] concerns SN12C.
The test system of assay [4] is NCI-H23.
Assay [5] relates to SW-620.
Assay [6] concerns SNB-75.
The subject of assay [7] is SK-MEL-28.
The test system of assay [8] is HOP-92.
Assay [9] has as its system K562.
In assay [10] the test system is RXF 393.
Assay [11] relates to UACC-257.
In assay [12] the test system is OVCAR-4.
Assay [13] relates to SK-OV-3.
The test system of assay [14] is TK-10.
The test system of assay [15] is HCC 2998.
The subject of assay [16] is NCI-H522.
In assay [17] the test system is SF-268.
Assay [18] concerns EKVX.
The subject of assay [19] is HOP-62.
Assay [20] deals with SK-MEL-2.

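Each compound was tested at five concentrations against cells in 96-well plates for 48 hours. At the GI50, growth is halved.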 Calls of active or inactive are those of the source. No stated cut-off is given here; in the data, active = GI50 up to about 1.1 µM and inactive = higher.

This note sets out measurements from ChEMBL document CHEMBL1201862, “PubChem BioAssay data set” (2004).

With `COC(=O)C1=Cc2c(OC)cc(OC)c(OC)c2[C@H](c2cc(OC)c(OC)cc2OC)C1C(=O)OC` (stereo not given in full), the GI50 is 64.7 µM (inactive) in assay [1]; > 100 µM (inactive) in assay [2]; > 100 µM (inactive) in assay [3]; > 100 µM (inactive) in assay [4]; > 100 µM (inactive) in [5]; 57.8 µM (inactive) in assay [6]. The GI50 is > 100 µM (inactive) in assay [7]; > 100 µM (inactive) in [8]; 20.1 µM (inactive) in [9]; > 100 µM (inactive) in assay [10]; > 10 µM (inactive) in [11]; 99.5 µM (inactive) in assay [12]. Besides, the GI50 in assay [13], in [14], in assay [15], in assay [16], in assay [17] and in assay [18] was > 100 µM (inactive) in each case. Further, in [19], the GI50 was > 100 µM (inactive).
Consider `Oc1cc(-c2ccccn2)nc2cc(F)ccc12`, for which the GI50 was > 100 µM (inactive) in [2]; > 100 µM (inactive) in assay [3]; > 100 µM (inactive) in [4]; 36.6 µM (inactive) in assay [5]; 26.5 µM (inactive) in [6]; > 100 µM (inactive) in assay [7]. In addition, the GI50 in assay [8] was 48.2 µM (inactive); in [9] it was 44.9 µM (inactive); in [10] it was > 100 µM (inactive); in [11], > 100 µM (inactive); in assay [12] it was > 100 µM (inactive); in assay [13], > 100 µM (inactive). The GI50 in assay [14] is > 100 µM (inactive); in assay [15] it was > 100 µM (inactive); in assay [16], 25.8 µM (inactive); in assay [18], 42.9 µM (inactive); in assay [19], > 100 µM (inactive).
Regarding `CC(=O)O[C@H]1CCC2[C@@H]3CCC4=C(O)C(=O)C(C#N)C[C@]4(C)C3CC[C@@]21C` (stereo not given in full), the GI50 is 30.1 µM (inactive) in assay [1]; 44.5 µM (inactive) in assay [2]; 33.5 µM (inactive) in assay [3]; 29.1 µM (inactive) in assay [4]; 47.1 µM (inactive) in assay [5]; 12.6 µM (inactive) in assay [6]. For the same compound, the GI50 is 46.7 µM (inactive) in assay [7]; 3.8 µM (inactive) in assay [8]; 24.8 µM (inactive) in [9]; 24.9 µM (inactive) in assay [10]; 56.5 µM (inactive) in assay [11]; 30.9 µM (inactive) in assay [12]. Also, the GI50 was 35 µM (inactive) in assay [20]; 29.4 µM (inactive) in assay [13]; 18.2 µM (inactive) in [14]; 29 µM (inactive) in assay [15]; 24.4 µM (inactive) in assay [17]; 41.7 µM (inactive) in assay [18]. The GI50 in assay [19] was 65.5 µM (inactive).
For `CC(C)[C@H](CCl)NC(=O)c1cccc(C(=O)N[C@H](CCl)C(C)C)n1` (stereo in doubt), the GI50 in assay [1], in assay [3], in assay [4], in assay [5], in [6] and in assay [7] was > 100 µM (inactive) in each case. Moreover, the GI50 in assay [8], in [9], in assay [10], in assay [12], in [13] and in assay [14] was > 100 µM (inactive) throughout. For the same compound, the GI50 in assay [15], in [16], in [17], in assay [18] and in assay [19] was > 100 µM (inactive) each time.
With `CC(=NNC(=S)Nc1ccccc1C)c1cccc(C(C)=NNC(=S)Nc2ccccc2C)n1`, the GI50 was 3.59 µM (inactive) in assay [1]; 17.4 µM (inactive) in assay [2]; 44.6 µM (inactive) in assay [3]; 65.3 µM (inactive) in [4]; 57.5 µM (inactive) in assay [5]; 2.36 µM (inactive) in assay [6]. In addition, the GI50 in assay [7] is 13 µM (inactive); in assay [8] it was 11.4 µM (inactive); in [9] it was 31.4 µM (inactive); in assay [10], 13.4 µM (inactive); in [11], 27.6 µM (inactive); in assay [12], 0.321 µM (active). The GI50 in [20] is 74.3 µM (inactive); in assay [13], > 100 µM (inactive); in assay [14], 23.7 µM (inactive); in [15] it was > 100 µM (inactive); in assay [17], 5.81 µM (inactive); in assay [18] it was 76 µM (inactive). In assay [19], the GI50 was 6.56 µM (inactive).
For `COc1cc(OC)cc(Oc2nc3ccc(C(F)(F)F)cc3nc2-c2ccccc2)c1`, the GI50 in assay [1], in [2], in [4], in assay [5], in assay [6] and in assay [7] was > 100 µM (inactive) in each case. The GI50 in assay [8], in assay [9], in [10], in assay [11], in [12] and in [13] was > 100 µM (inactive) each time. The GI50 in [14], in assay [15], in assay [16], in assay [17], in assay [18] and in [19] was > 100 µM (inactive) in each case.
With `CC(=O)/C(=C/NC(=S)Nc1ccc(Cl)c(Cl)c1)C(=O)Nc1ccccc1C`, the GI50 in [2] is 18.9 µM (inactive); in assay [3] it was 35.7 µM (inactive); in [4], 23.6 µM (inactive); in assay [5], 44.1 µM (inactive); in assay [6], 18.1 µM (inactive); in assay [7], 44.7 µM (inactive). For the same compound, the GI50 in [8] is 22 µM (inactive); in assay [10], 29.4 µM (inactive); in [11], 31.7 µM (inactive); in [12], 18.6 µM (inactive); in assay [20], 28 µM (inactive); in assay [13], 30.9 µM (inactive). For the same compound, the GI50 in [14] was 43.8 µM (inactive); in [15], 32.3 µM (inactive); in assay [17], 34.5 µM (inactive); in assay [18] it was 21.5 µM (inactive); in assay [19] it was 33.4 µM (inactive).
On to `CC1(C)NC(C)(C)/C(=N\O)C(=NO)/C1=N/O`, for which the GI50 in assay [1], in [2], in assay [3], in assay [4], in [5] and in [6] was > 100 µM (inactive) each time. The GI50 in [7], in [8], in assay [9], in assay [10], in assay [11] and in assay [12] was > 100 µM (inactive) throughout. Moreover, the GI50 in assay [20], in assay [13], in assay [14], in [15], in assay [17] and in assay [18] was > 100 µM (inactive) each time. In addition, the GI50 in [19] is > 100 µM (inactive).
